Here are results for 4 compounds from patent US6048540A, “Acetamenophen composition with reduced liver toxicity” (Chong Kun Dang Corp., priority 1997, dated 2000).

Structures are written as SMILES.

For data set [1] the following is noted: low dose; cited from earlier work.
Data set [2] is described as follows: Stability test: content on storage and shelf life. The note with it: calculated with Arrehnius equation; component of prescription (b) of Example 2.

Turning to `CC(=O)Nc1ccc(O)cc1` [Acetaminophen], the “eliminated as unmetabolized form” value in data set [1] is “about 2%”. For the same compound, the “Shelf life (time that content maintains more than 90% of initial at 25° C.)” value in data set [2] is reported as 35.94 months. For `CSCCC(N)C(=O)O` (racemic) [DL-Methionine], the “Shelf life (time that content maintains more than 90% of initial at 25° C.)” value in data set [2] is 35.64 months. For `Cn1c(=O)c2c(ncn2C)n(C)c1=O` [Caffeine anhydrous], the “Shelf life (time that content maintains more than 90% of initial at 25° C.)” value in data set [2] was 89.84 months.

In the case of `N[C@@H](CC(=O)[O-])C(=O)[O-].O.[Na+].[Na+]` [Sodium L-aspartate monohydrate], the “Shelf life (time that content maintains more than 90% of initial at 25° C.)” value in data set [2] was 33.86 months.
